Reference: patent US10537583B2, “Oral formulation of A-nor-5α androstane compound” (priority 2014, dated 2020)
Read-outs that look alike come from different tables or passages of the source.

What was measured:
[1] = 37° C., 72 hours, n = 3
Procedure: Phosphate buffer solution (PBS) with different pH was prepared (pH is 1.0, 5.0, 5.5, 5.8, 6.0, 6.8 and 7.4). The equilibrium solubility of A-nor-5α androstane compounds (Ia) in PBS with different pH was determined by using Equilibrium Method. Method: 5 mL of each medium was removed into test tubes with plug and about 30 mg of crude drugs comprising A-nor-5α androstane compounds were added into the tubes respectively. The tubes were subjected to a thermostatic oscillator (37° C.) and vibrated at 100 rpm. After 72 hours, the sample was taken and subjected to HPLC analysis.

[2] = n-octanol, 37° C., n = 3
Procedure: PBS with different pH was prepared, and oil-water partition coefficient of A-nor-5α androstane compound (Ia) in a buffer solution with different pH (e.g., 2.0, 4.5, 5.0, 6.0, 6.8, 7.4, respectively) was determined by shake-flask method. Water-saturated n-octanol was used to prepare a stock solution of A-nor-5α androstane compound, concentration of which was about 10 mg/mL. A variety of n-octanol-saturated PBS and aqueous solution (5 ml) was taken and added into glass tubes with plug. 0.5 mL of stock solution of A-nor-5α-androstane compound was added. The tubes were sealed completely and subjected to a 37° C. thermostatic oscillator, and sampled after shaking for 24 h. Samples from water phase and oil phase were taken for analysis by HPLC, respectively. The drug concentrations in water and oil phase were calculated. According to […], oil-water partition coefficient (Log P) was calculated and the results are shown in Table 2.

Caco-2 cells [3] = system: Caco-2 cells
Procedure: The qualified Transwell plate was taken. The nutrient solution comprising drugs was prepared by using Hank's balanced salt solution (HBSS) to study the bidirectional transfer of A-nor-5α-androstane compounds (Ia) with different concentrations in Caco-2 cells.

Caco-2 cells [4] = system: Caco-2 cells; remark: listed apart in the source
Procedure: Caco-2 cells were spotted on a six-well plate. When the cells were grown to an inoculation density of 8×10^4 cells/mL, the cells were cultured with the drug-containing medium. The relationship between cells uptake and uptake time, the concentration of A-nor-5α-androstane compound (Ia) were examined. After the experiment was completed, the cells were scraped off and the cells were broken by multiple freezing-thawing. The samples of the cells were precipitated by acetonitrile and then subjected to HPLC analysis.

[5] = for Ka (absorption rate constant) / P (cumulative absorption percentage) / Q (absorption dose in 2 hours): n = 3
Procedure: A suitable concentration of intestinal circulating liquid comprising A-nor-5α-androstane compounds (Ia) was prepared by using PBS (pH 5.5 and pH 6.8) containing phenol red. Rats were fasting over 12 hours before the experiment and then subjected to intraperitoneal injection with urethane solution (dose 4 mL/kg) at a concentration of 0.3 g/ml for anesthesia. The rats were fixed and a 3 cm incision was made along the medioventral line. The duodenum (start from 1 cm below the pyloru, intestinal circulating fluid comprising A-nor-5α androstane compound, pH 5.5), the jejunum (start from […], intestinal circulating fluid comprising A-nor-5α androstane compound, pH 6.8), and the ileum (start from 30 cm below the pylorus, intestinal circulating fluid comprising A-nor-5α androstane compound, pH 6.8) were incubated and ligated. Preheated saline (37° C.) was used to clean the intestinal contents, and then the air (37° C.) was ventilated into the intestine to remove the saline. The wound was covered with dressing, and infrared lamp was used to keep warm (37° C.). The reflux device was connected and after 50 ml of drug-containing circulating fluid at a constant temperature of 37° C. was balanced at 3 mL/min for 5 min, timing was started when the flow rate was adjusted to 1 mL/ml. Samples (1 mL for each) were taken at 0, 15, 30, 45, 60, 90, and 120 min, while adding blank circulating fluid (1 mL). The sample was subjected to HPLC analysis after appropriate treatment. The volume of circulating fluid was corrected according to the concentration of phenol red. Then the remained amounts of drug X were calculated by the concentration of A-nor-5α androstane compounds and the volume of circulating fluid. Line slope is the absorption rate constant (Ka) of a drug. The cumulative absorption percentage (P) of the drug is obtained by comparing the absorption dose (Q) of a drug in 2 hours to the initial dose (X0) before absorption.

[6] = Description: It mainly relies on passive diffusion mechanism for transport, uptake and absorb in the body and the uptake amounts are dependent on the time and dose. A-nor-5α-androstane compound can be administered by oral pathway. […] Therefore, an oral formulation, such as ordinary oral tablet, oral capsule and other sustained-release preparation, is designed according to the present invention.
[7] = Beagle dogs, 1.0 mg/kg by gastric gavage
[8] = rat duodenum, circulating fluid pH 5.5
[9] = rat ileum, circulating fluid pH 6.8
[10] = rat jejunum, circulating fluid pH 6.8
[11] = rat jejunum, concentration 25.0 μg/mL
[12] = rat jejunum, concentration 50.0 μg/mL
[13] = rat jejunum, concentration 100.0 μg/mL

C#C[C@@]1(O)C[C@@H]2CC[C@@H]3[C@H](CC[C@@]4(C)[C@H]3CC[C@@]4(O)C#C)[C@@]2(C)C1 [Ia, 2α, 17α-diethynyl-A-nor-5α-androstane-2β, 17β-dihydroxy compound]
equilibrium solubility ([1]; pH 1.0 hydrochloric acid): 7.85 ± 0.57 µg/mL
equilibrium solubility ([1]; pH 5.0 PBS): 14.73 ± 0.80 µg/mL
equilibrium solubility ([1]; pH 5.5 PBS): 45.73 ± 0.23 µg/mL
equilibrium solubility ([1]; pH 5.8 PBS): 70.52 ± 1.28 µg/mL
equilibrium solubility ([1]; pH 6.0 PBS): 144.54 ± 0.77 µg/mL
equilibrium solubility ([1]; pH 6.8 PBS): 1388.16 ± 90.95 µg/mL
equilibrium solubility ([1]; pH 7.4 PBS): 4507.97 ± 487.04 µg/mL
LogP ([2]; buffer pH 2.0): ∞
LogP ([2]; buffer pH 4.5): 4.19
LogP ([2]; buffer pH 5.0): 3.80
LogP ([2]; buffer pH 6.0): 2.52
LogP ([2]; buffer pH 6.8): 0.98
LogP ([2]; buffer pH 7.4): 0.11
apparent permeability coefficient (Papp) (Caco-2 cells [3]; all Papps under various conditions): > 1e-06 cm/s
ER (efflux rate) (Caco-2 cells [3]; concentration 0.5 mg/mL): 1.94
Papp A-B (Caco-2 cells [3]; concentration 0.5 mg/mL): 2.59 ± 0.17 ×10^−6 cm/s
Papp B-A (Caco-2 cells [3]; concentration 0.5 mg/mL): 5.02 ± 0.50 ×10^−6 cm/s
ER (efflux rate) (Caco-2 cells [3]; concentration 0.75 mg/mL): 1.62
Papp A-B (Caco-2 cells [3]; concentration 0.75 mg/mL): 4.00 ± 0.15 ×10^−6 cm/s
Papp B-A (Caco-2 cells [3]; concentration 0.75 mg/mL): 6.46 ± 0.71 ×10^−6 cm/s
ER (efflux rate) (Caco-2 cells [3]; concentration 1.0 mg/mL): 1.82
Papp A-B (Caco-2 cells [3]; concentration 1.0 mg/mL): 4.98 ± 0.16 ×10^−6 cm/s
Papp B-A (Caco-2 cells [3]; concentration 1.0 mg/mL): 9.07 ± 0.35 ×10^−6 cm/s
relationship of uptake amounts with uptake time (Caco-2 cells [4]; Y=0.204x+6.107, r=0.9952): linear relationship with the uptake time
relationship of uptake amounts with concentration (Caco-2 cells [4]; y=40.59x−10.47, r=0.9994): linear relationship with the concentration
Ka (absorption rate constant) [5, 8]: 4.27 ± 1.53 ×10^−3 min
P (cumulative absorption percentage) [5, 8]: 45.48 ± 9.33%
Q (absorption dose in 2 hours) [5, 8]: 324.42 ± 65.21 μg/2 h
Ka (absorption rate constant) [5, 9]: 7.57 ± 2.56 ×10^−3 min
P (cumulative absorption percentage) [5, 9]: 65.23 ± 11.80%
Q (absorption dose in 2 hours) [5, 9]: 1603.03 ± 289.37 μg/2 h
Ka (absorption rate constant) [5, 10]: 9.53 ± 4.22 ×10^−3 min
P (cumulative absorption percentage) [5, 10]: 71.68 ± 13.48%
Q (absorption dose in 2 hours) [5, 10]: 1809.26 ± 369.52 μg/2 h
Ka (absorption rate constant) [5, 11]: 18.87 ± 2.94 ×10^−3 min
P (cumulative absorption percentage) [5, 11]: 90.27 ± 3.28%
Q (absorption dose in 2 hours) [5, 11]: 1063.39 ± 75.81 μg/2 h
Ka (absorption rate constant) [5, 12]: 9.53 ± 4.22 ×10^−3 min
P (cumulative absorption percentage) [5, 12]: 71.68 ± 13.48%
Q (absorption dose in 2 hours) [5, 12]: 1809.26 ± 369.52 μg/2 h
Ka (absorption rate constant) [5, 13]: 5.50 ± 0.36 ×10^−3 min
P (cumulative absorption percentage) [5, 13]: 53.25 ± 2.77%
Q (absorption dose in 2 hours) [5, 13]: 2636.52 ± 137.86 μg/2 h
relationship between absorption and concentration ([5]; rat jejunum, y=20.34x+649.7, r=0.9869): good linear relationship
absorption percentages ([5]; rat, both jejunum and ileum): > 50%
water dissolution rate [6]: 6.5 µg/mL
absolute bioavailability ([7]; based on AUC0-t of crude drug): 56.8%
absolute bioavailability ([7]; based on AUC0-t of total main metabolites in vivo): 93.0%
